Paper PMC2918672 (Journal of molecular biology, 2010)
Square brackets hold non-standard residues; d marks the D form. Ends that are not written are not given here. Sta = CC(C)C[C@H](N)[C@@H](O)CC(=O)O

Tested on: L40I mutant HTLV-1 PR
Assay: Inhibition of L40I mutant HTLV-1 PR, fluorescent substrate cleavage
Format: biochemical, Human T-cell leukemia virus type 1 (HTLV-1)
Conditions: test compound 50 nM; L40I mutant HTLV-1 PR 1 μg in 50 μL reaction mixture (as a dimer); substrate H-Lys([7-methoxycoumarin-4-yl]acetyl)-APQVL-(p-nitrophenylalanine)-VMHPL-OH; inverse percentage of remaining activity; single determination

Substance: Ac-APQV[Sta]VMHP [Statine Inhibitor]
- Percent inhibition (%) at 50 nM: 19%
